According to patent publication US11419854B2, “Medicament containing pemafibrate” (KOWA COMPANY, LTD., priority 2017, dated 2022):

What was measured:
[1] = literature statement; cited from earlier work
[2] = Pharmacokinetic study of pemafibrate in liver cirrhosis patients (plasma unchanged pemafibrate, LC-MS-MS); assay type: in vivo, human; settings: for AUC0-t, ratio of geometric mean to persons with normal liver function / Cmax, ratio of geometric mean to persons with normal liver function: single oral dose 0.2 mg, fasting
Experimental: To investigate the effect of liver cirrhosis on the pharmacokinetics of pemafibrate, a clinical study was conducted on mild liver cirrhosis patients, moderate liver cirrhosis patients, fatty liver patients, and persons with normal liver function.
Subjects were classified into four groups according to the criteria in Table 2. As a result, the subjects included 8 mild liver cirrhosis patients, 6 moderate liver cirrhosis, patients, 10 fatty liver patients, and 8 persons with normal liver function.
2. Test Method (1) Administration and Measurement Subjects received a single oral dose of 0.2 mg of study drug (pemafibrate) in the fasting state (fasting for at least 10 hours).
Blood samples were collected at a total of 16 time points immediately before administration of the investigational product and 0.25, 0.5, 1, 1.5, 2, 3, 4, 6, 8, 10, 12, 16, 24, 36, and 48 hours after administration of the investigational product, and plasma concentrations of unchanged pemafibrate were measured by high performance liquid chromatography/tandem mass spectrometry (High-Performance Liquid Chromatography/Tandem Mass Spectrometry: LC-MS-MS method).
To investigate the pharmacokinetics, the pharmacokinetic parameters (maximum concentration (Cmax) and area under the concentration-time curves […] (AUC0-t) of unchanged pemafibrate were evaluated by calculating the ratio of the geometric mean values of the groups of patients with hepatic dysfunction to those with normal hepatic function and their 90% confidence intervals.

[3] = fatty liver patients (n = 10) vs normal liver function (n = 8), plasma unchanged pemafibrate
[4] = mild liver cirrhosis Child-Pugh class A (n = 8) vs normal liver function (n = 8)
[5] = moderate liver cirrhosis Child-Pugh class B (n = 6) vs normal liver function (n = 8)

Row | geometric mean values of Cmax and AUC0-t compared with the liver function normal group ([2]; fatty liver patient group) | AUC0-t, ratio of geometric mean to persons with normal liver function [2, 3] | Cmax, ratio of geometric mean to persons with normal liver function [2, 3] | AUC0-t, ratio of geometric mean to persons with normal liver function [2, 4] | Cmax, ratio of geometric mean to persons with normal liver function [2, 4] | ratio of geometric mean values of Cmax and AUC0-t, liver cirrhosis patients to persons with normal liver function ([2]; mild liver cirrhosis patients (Child-Pugh Class A)) | AUC0-t, ratio of geometric mean to persons with normal liver function [2, 5] | Cmax, ratio of geometric mean to persons with normal liver function [2, 5] | ratio of geometric mean values of Cmax and AUC0-t, liver cirrhosis patients to persons with normal liver function ([2]; moderate liver cirrhosis patients (Child-Pugh Class B)) | SMILES | route of excretion [1]
1 | – | – | – | – | – | – | – | – | – | CC(C)(Oc1ccc(CCNC(=O)c2ccc(Cl)cc2)cc1)C(=O)O [bezafibrate] | excreted in the urine primarily via kidneys
2 | about 1.2 times | 1.194 | 1.198 | 2.076 | 2.329 | approximately 2 fold | 4.191 | 3.882 | approximately 4 fold | CC[C@@H](Oc1cccc(CN(CCCOc2ccc(OC)cc2)c2nc3ccccc3o2)c1)C(=O)O [pemafibrate, (2R)-2-[3-({1,3-benzoxazol-2-yl[3-(4-methoxyphenoxy)propyl]amino}methyl)phenoxy]butanoic acid] | rarely excreted via kidneys
